From patent US11274092B2, “Potassium channel inhibitors” (ACESION PHARMA ApS, priority 2016, dated 2022)

Target: T1, human SK3 channel (hKCa2.3) (Homo sapiens, UniProt Q9UGI6)
T1 construct: expressed in transfected cells
Experiment: Automated whole cell patch-clamp (QPatch 16 HT), inhibition of SK3 current
Assay type: cell-based
Settings: HEK-293 cells stably expressing hKCa2.3; symmetrical K+ solutions, free calcium 400 nM; effects normalized to N-methyl bicuculline
Summary of the method: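 HEK-293 cells stably expressing hKCa2.3, automated whole-cell patch clamp in symmetrical K+ (400 nM free intracellular Ca2+, pH 7.2; external pH 7.4). Held at 0 mV, ramps −80 to +80 mV (200 ms) every 5 s; increasing compound concentrations, currents run-down corrected and normalized to 100 μM N-methyl bicuculline; IC50 reported.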

| SMILES | IC50 |
| --- | --- |
| CCN(CC#N)C(=O)CC(Nc1nc2c(CO)cccc2[nH]1)c1cccc(C(F)(F)F)c1 (stereo not shown) [Example 53, N-(cyanomethyl)-N-ethyl-3-{[4-(hydroxymethyl)-1H-1,3-benzodiazol-2-yl]amino}-3-[3-(trifluoromethyl)phenyl]propanamide] | 10 to 100 µM |
| CCN(CCSC)C(=O)CC(Nc1nc2c(CO)cccc2[nH]1)c1cccc(C(F)(F)F)c1 (stereo not shown) [Example 58, N-ethyl-3-{[4-(hydroxymethyl)-1H-1,3-benzodiazol-2-yl]amino}-N-[2-(methylsulfanyl)ethyl]-3-[3-(trifluoromethyl)phenyl]propanamide] | < 10 µM |
| COCC(C)NC(=O)CC(Nc1nc2ccccc2[nH]1)c1cccc(C(F)(F)F)c1 (stereo not shown) [Example 73, 3-[(1H-1,3-benzodiazol-2-yl)amino]-N-(1-methoxypropan-2-yl)-3-[3-(trifluoromethyl)phenyl]propanamide] | < 10 µM |
| CCN(CCO)C(=O)C(Nc1nc2ccccc2[nH]1)c1cccc(C(F)(F)F)c1 (single isomer, unassigned; (-)) [Example 38a, (−)2-[(1H-1,3-benzodiazol-2-yl)amino]-N-ethyl-N-(2-hydroxyethyl)-2-[3-(trifluoromethyl)phenyl]acetamide] | < 10 µM |
| O=C(CC(Nc1nc2ccccc2[nH]1)c1cccc(C(F)(F)F)c1)NCc1ccon1 (stereo not shown) [Example 71, 3-[(1H-1,3-benzodiazol-2-yl)amino]-N-(1,2-oxazol-3-ylmethyl)-3-[3-(trifluoromethyl)phenyl]propanamide] | < 10 µM |
| CCN(CCO)C(=O)CC(Nc1nc2ccccc2[nH]1)c1ccc(Cl)c(C)c1 (single isomer, unassigned; (-)) [Example 40a, (−)3-[(1H-1,3-benzodiazol-2-yl)amino]-3-(4-chloro-3-methylphenyl)-N-ethyl-N-(2-hydroxyethyl)propanamide] | < 10 µM |
| CCN(CC#N)C(=O)CC(Nc1nc2c(CCO)cccc2[nH]1)c1cccc(C(F)(F)F)c1 (stereo not shown) [Example 52, N-(cyanomethyl)-N-ethyl-3-{[4-(2-hydroxyethyl)-1H-1,3-benzodiazol-2-yl]amino}-3-[3-(trifluoromethyl)phenyl]propanamide] | 10 to 100 µM |
| O=C(CC(Nc1nc2ccccc2[nH]1)c1cccc(C(F)(F)F)c1)N[C@H]1CCOC1 (stereo partly drawn) [Example 9, 3-[(1H-1,3-benzodiazol-2-yl)amino]-N-[(3S)-oxolan-3-yl]-3-[3-(trifluoromethyl)phenyl]propanamide] | < 10 µM |
| O=C(C(Nc1nc2ccccc2[nH]1)c1cccc(C(F)(F)F)c1)N1CCC1 (single isomer, unassigned; (+)) [Example 34a, (+)1-(azetidin-1-yl)-2-[(1H-1,3-benzodiazol-2-yl)amino]-2-[3-(trifluoromethyl)phenyl]ethan-1-one] | < 10 µM |
| O=C(CC(Nc1nc2ccccc2[nH]1)c1cccc(OC(F)(F)F)c1)NCc1ccon1 (stereo not shown) [Example 88, 3-[(1H-1,3-benzodiazol-2-yl)amino]-N-(1,2-oxazol-3-ylmethyl)-3-[3-(trifluoromethoxy)phenyl]propanamide] | < 10 µM |
| CN(C)CCN(C)C(=O)CC(Nc1nc2ccccc2[nH]1)c1cccc(C(F)(F)F)c1 (stereo not shown) [Example 2, 3-[(1H-1,3-benzodiazol-2-yl)amino]-N-[2-(dimethylamino)ethyl]-N-methyl-3-[3-(trifluoromethyl)phenyl]propanamide] | 10 to 100 µM |
| CCN(CC(N)=O)C(=O)CC(Nc1nc2c(CO)cccc2[nH]1)c1cccc(C(F)(F)F)c1 (stereo not shown) [Example 54, N-(carbamoylmethyl)-N-ethyl-3-{[4-(hydroxymethyl)-1H-1,3-benzodiazol-2-yl]amino}-3-[3-(trifluoromethyl)phenyl]propanamide] | < 10 µM |
| Cc1cccc(C(C)NC(=O)CC(Nc2nc3ccccc3[nH]2)c2cccc(C(F)(F)F)c2)n1 (stereo not shown) [Example 76, 3-[(1H-1,3-benzodiazol-2-yl)amino]-N-[1-(6-methylpyridin-2-yl)ethyl]-3-[3-(trifluoromethyl)phenyl]propanamide] | < 10 µM |
| CN(C)C(=O)CNC(=O)CC(Nc1nc2ccccc2[nH]1)c1cccc(C(F)(F)F)c1 (stereo not shown) [Example 22, 3-[(1H-1,3-benzodiazol-2-yl)amino]-N-[(dimethylcarbamoyl)methyl]-3-[3-(trifluoromethyl)phenyl]propanamide] | < 10 µM |
| CCc1cc(C(CC(=O)N(CC)CCO)Nc2nc3ccccc3[nH]2)ccc1F (single isomer, unassigned; (-)) [Example 65a, (−)3-[(1H-1,3-benzodiazol-2-yl)amino]-N-ethyl-3-(3-ethyl-4-fluorophenyl)-N-(2-hydroxyethyl)propanamide] | < 10 µM |
| O=C(CC(Nc1nc2ccccc2[nH]1)c1cccc(C(F)(F)F)c1)N1CC[C@@H](O)C1 (stereo partly drawn) [Example 14, 3-[(1H-1,3-benzodiazol-2-yl)amino]-1-[(3R)-3-hydroxypyrrolidin-1-yl]-3-[3-(trifluoromethyl)phenyl]propan-1-one] | 10 to 100 µM |
| COC(=O)CNC(=O)CC(Nc1nc2ccccc2[nH]1)c1cccc(C(F)(F)F)c1 (single isomer, unassigned; (-)) [Example 59a, (−)Methyl 2-{3-[(1H-1,3-benzodiazol-2-yl)amino]-3-[3-(trifluoromethyl)phenyl]propanamido}acetate] | < 10 µM |
| CCN(CCN(C)C)C(=O)CC(Nc1nc2ccccc2[nH]1)c1cccc(C(F)(F)F)c1 (stereo not shown) [Example 45, 3-[(1H-1,3-benzodiazol-2-yl)amino]-N-[2-(dimethylamino)ethyl]-N-ethyl-3-[3-(trifluoromethyl)phenyl]propanamide] | 10 to 100 µM |
| COC(=O)N1CCN(C(=O)C(Nc2nc3ccccc3[nH]2)c2cccc(C(F)(F)F)c2)CC1 (stereo not shown) [Example 61, Methyl 4-{2-[(1H-1,3-benzodiazol-2-yl)amino]-2-[3-(trifluoromethyl)phenyl]acetyl}piperazine-1-carboxylate] | < 10 µM |
| COCCNC(=O)CC(Nc1nc2ccccc2[nH]1)c1cccc(SC(F)(F)F)c1 (stereo not shown) [Example 82, 3-[(1H-1,3-benzodiazol-2-yl)amino]-N-(2-methoxyethyl)-3-{3-[(trifluoromethyl)sulfanyl]phenyl}propanamide] | < 10 µM |
| CN(CCCO)C(=O)CC(Nc1nc2ccccc2[nH]1)c1cccc(C(F)(F)F)c1 (stereo not shown) [Example 17, 3-[(1H-1,3-benzodiazol-2-yl)amino]-N-(3-hydroxypropyl)-N-methyl-3-[3-(trifluoromethyl)phenyl]propanamide] | < 10 µM |
| O=C(CC(Nc1nc2ccccc2[nH]1)c1cccc(OC(F)(F)F)c1)NCCOC(F)(F)F (stereo not shown) [Example 83, 3-[(1H-1,3-benzodiazol-2-yl)amino]-N-[2-(trifluoromethoxy)ethyl]-3-[3-(trifluoromethoxy)phenyl]propanamide] | < 10 µM |
| CCc1cc(C(CC(=O)N(CC)CCO)Nc2nc3ccccc3[nH]2)ccc1F (stereo not shown) [Example 65, 3-[(1H-1,3-benzodiazol-2-yl)amino]-N-ethyl-3-(3-ethyl-4-fluorophenyl)-N-(2-hydroxyethyl)propanamide] | < 10 µM |
| Cc1cc(CNC(=O)CC(Nc2nc3ccccc3[nH]2)c2cccc(C(F)(F)F)c2)ccn1 (stereo not shown) [Example 79, 3-[(1H-1,3-benzodiazol-2-yl)amino]-N-[(2-methylpyridin-4-yl)methyl]-3-[3-(trifluoromethyl)phenyl]propanamide] | < 10 µM |
| CN(CCO)C(=O)C(Nc1nc2ccccc2[nH]1)c1cccc(C(F)(F)F)c1 (stereo not shown) [Example 30, 2-[(1H-1,3-benzodiazol-2-yl)amino]-N-(2-hydroxyethyl)-N-methyl-2-[3-(trifluoromethyl)phenyl]acetamide] | < 10 µM |
